In ChEMBL document CHEMBL1156392, “New sesquiterpene derivatives from the red alga Laurencia scoparia. Isolation, structure determination, and anthelmintic activity” (J Nat Prod, 2001):

System: Nippostrongylus brasiliensis
Test: Anthelmintic activity against Nippostrongylus brasiliensis
Type: functional, organism-based
Details: for EC50: Nippostrongylus brasiliensis

Row | EC50 | Compound | Activity
1 |  | C=C1C[C@@H](O)[C@@H](Br)C(C)(C)[C@@]12C=C/C(=C/Br)CC2 | <100 µM
2 |  | C=C1C[C@@H](O)[C@@H](Br)C(C)(C)[C@@]12C=CC(=O)CC2 | <100 µM
3 |  | C=C1C[C@@H](O)[C@@H](Br)C(C)(C)[C@@]12C=C/C(=C\Br)CC2 | <100 µM
4 |  | CCCCCCCCCCCCCC/C=C(/C=O)CCCCCCCCCCCCC | <100 µM
5 |  | C=C1C[C@@H](O)[C@H](Br)C(C)(C)[C@]12CC=C(C)CC2 | <100 µM
6 |  | CC1=CC(=O)CC(C)(C)[C@@]12C=CC(=O)CC2 | <100 µM
7 |  | C=C1CC[C@@H](Br)C(C)(C)[C@]12CC[C@](C)(Br)[C@@H](Cl)C2 | <100 µM
8 | 0.12 µM | COC(=O)Nc1nc2cc(Sc3ccccc3)ccc2[nH]1 [FENBENDAZOLE] | 
9 |  | C=C1C[C@H](O)[C@@H](Br)C(C)(C)[C@@]12C=C[C@](C)(O)CC2 [ISORIGIDOL] | <100 µM
10 | 0.21 µM | c1ccc([C@H]2CN3CCSC3=N2)cc1 [LEVAMISOLE] | 

Row | Compound | EC50 | Activity
11 | CCCSc1ccc2[nH]c(NC(=O)OC)nc2c1 [ALBENDAZOLE] | 0.34 µM | 
